Data as given in the supplement of paper PMC10307832.

How the values were obtained:
Assay in all cases: relative viability (nuclei count vs DMSO), 5 days (fraction); higher = more cells survive
[1] = compound: CCOc1cc2ncc(C#N)c(Nc3ccc(OCc4ccccn4)c(Cl)c3)c2cc1NC(=O)/C=C/CN(C)C [Neratinib] + O=C(CCCCCCC(=O)Nc1ccccc1)NO [Vorinostat] (partner 1 µM)
How it was run: (§1)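 Medians of duplicate plates are given as relative viability. That measure is the nuclei count in treated wells divided by the count in vehicle wells. Counts were taken on 4× images of lung cancer cell lines in 1536-well plates, 5 days after pin-tool dosing the day after seeding with one drug alone or a fixed anchor-drug dose plus five library-drug doses (not always all listed) in √10 steps.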

[2] = compound: CCOc1cc2ncc(C#N)c(Nc3ccc(OCc4ccccn4)c(Cl)c3)c2cc1NC(=O)/C=C/CN(C)C [Neratinib] + Cc1cc(Nc2cc(N3CCN(C)CC3)nc(Sc3ccc(NC(=O)C4CC4)cc3)n2)n[nH]1 [Tozasertib] (partner 0.1 µM)
How it was run: as §1

[3] = compound: CCOc1cc2ncc(C#N)c(Nc3ccc(OCc4ccccn4)c(Cl)c3)c2cc1NC(=O)/C=C/CN(C)C [Neratinib] + C[C@@H](Oc1cc(-c2cnn(C3CCNCC3)c2)cnc1N)c1c(Cl)ccc(F)c1Cl [Crizotinib] (partner 1 µM)
How it was run: as §1

[4] = compound: CCOc1cc2ncc(C#N)c(Nc3ccc(OCc4ccccn4)c(Cl)c3)c2cc1NC(=O)/C=C/CN(C)C [Neratinib] + CC1(C)CCC(c2ccc(Cl)cc2)=C(CN2CCN(c3ccc(C(=O)NS(=O)(=O)c4ccc(N[C@H](CCN5CCOCC5)CSc5ccccc5)c(S(=O)(=O)C(F)(F)F)c4)cc3)CC2)C1 [Navitoclax] (partner 0.5 µM)
How it was run: as §1

| Cell Line | relative viability ([1]; first compound 0.01 µM) | relative viability ([1]; first compound 0.03162 µM) | relative viability ([1]; first compound 0.1 µM) | relative viability ([1]; first compound 0.3162 µM) | relative viability ([1]; first compound 1 µM) | relative viability ([2]; first compound 0.01 µM) | relative viability ([2]; first compound 0.03162 µM) | relative viability ([2]; first compound 0.1 µM) | relative viability ([2]; first compound 0.3162 µM) | relative viability ([2]; first compound 1 µM) | relative viability ([3]; first compound 0.01 µM) | relative viability ([3]; first compound 0.03162 µM) | relative viability ([3]; first compound 0.1 µM) | relative viability ([3]; first compound 0.3162 µM) | relative viability ([3]; first compound 1 µM) | relative viability ([4]; first compound 0.01 µM) | relative viability ([4]; first compound 0.1 µM) | relative viability ([4]; first compound 0.3162 µM) | relative viability ([4]; first compound 1 µM) | relative viability ([4]; first compound 0.03162 µM) |
| --- | --- | --- | --- | --- | --- | --- | --- | --- | --- | --- | --- | --- | --- | --- | --- | --- | --- | --- | --- | --- |
| HCC-78 | 0.547 | 0.408 | 0.352 | 0.362 | 0.28 | 0.584 | 0.373 | 0.401 | 0.379 | 0.238 | 0.325 | 0.3 | 0.284 | 0.264 | 0.225 | 0.747 | 0.702 | 0.663 | 0.231 | – |
| NCI-H2087 | 0.783 | 0.566 | 0.538 | 0.711 | 0.573 | 0.239 | 0.274 | 0.197 | 0.193 | 0.134 | 1.02 | 1.03 | – | 0.978 | 0.667 | 1.04 | – | 1 | 0.444 | 0.896 |
| SK-LU-1 | 0.805 | 0.878 | 0.728 | 0.651 | 0.421 | 0.292 | 0.305 | 0.277 | 0.294 | 0.227 | 1.05 | – | 0.848 | 0.604 | 0.402 | 0.842 | – | 0.0386 | 0.523 | 0.979 |
| NCI-H2342 | 0.797 | 0.88 | 0.647 | 0.585 | 0.54 | 0.414 | 0.52 | 0.441 | 0.455 | 0.358 | – | – | – | – | – | – | – | – | – | – |
| A-427 | 0.958 | – | 0.849 | – | 0.857 | 0.234 | 0.246 | 0.177 | 0.214 | 0.145 | 1.07 | 0.936 | 0.819 | 0.924 | 0.566 | 1.06 | 0.907 | 0.879 | 0.46 | 0.984 |
| H3255 | 0.826 | 0.826 | 0.65 | 0.509 | 0.191 | 0.759 | 0.721 | 0.423 | 0.233 | 0.236 | 0.836 | 0.838 | 0.671 | 0.243 | 0.164 | 0.583 | 0.243 | 0.0785 | 0.0934 | 0.74 |
| HCC-44 | 1.11 | 1.09 | 1.12 | 1.1 | 1.09 | 1.31 | 1.15 | – | 0.778 | 0.458 | 0.821 | 0.8 | 0.727 | 0.806 | 0.851 | 1.1 | 0.867 | 0.951 | 0.917 | 0.978 |
| NCI-H1734 | 0.997 | 0.766 | 0.743 | 0.752 | 0.6 | 0.231 | 0.281 | 0.168 | 0.266 | 0.212 | 0.838 | 0.722 | 0.535 | 0.646 | 0.446 | 0.902 | 0.789 | 0.818 | 0.557 | 1.02 |
| NCI-H23 | 0.699 | 0.7 | 0.641 | 0.493 | 0.491 | 0.371 | 0.342 | 0.33 | 0.298 | 0.215 | 0.697 | 0.572 | 0.413 | 0.486 | 0.27 | 0.745 | 0.694 | 0.838 | 0.528 | 1.12 |
| ABC-1 | 1.57 | – | 0.813 | 1.13 | 0.713 | 0.206 | 0.139 | 0.177 | 0.146 | 0.185 | 1.47 | 0.954 | 1.06 | 0.668 | 0.537 | – | – | – | – | – |
| COR-L23 | 0.466 | 0.468 | 0.486 | 0.449 | 0.235 | 0.216 | 0.217 | 0.193 | 0.186 | 0.176 | 0.853 | 0.678 | 0.589 | 0.564 | 0.503 | 1.16 | 1.13 | 0.968 | 0.485 | 1.13 |
| NCI-H358 | 0.659 | 0.538 | 0.282 | 0.148 | 0.106 | 0.0993 | 0.0867 | 0.0981 | 0.0713 | 0.0842 | 0.65 | 0.409 | 0.391 | 0.161 | 0.182 | – | – | – | – | – |
| EBC-1 | – | – | – | – | – | – | – | – | – | – | 0.167 | 0.204 | 0.175 | – | 0.203 | 0.439 | 0.41 | 0.339 | 0.219 | 0.408 |
| NCI-H661 | 0.866 | 0.729 | 0.583 | 0.657 | 0.445 | 0.374 | 0.322 | 0.323 | 0.37 | 0.308 | 1.06 | 0.983 | 0.989 | 0.828 | 0.343 | – | – | – | – | – |
| NCI-H1792 | – | – | – | – | – | – | – | – | – | – | 1.1 | 1.09 | 0.931 | 0.867 | 0.872 | 0.622 | 0.612 | – | 0.591 | 0.833 |
| A549 | – | – | – | – | – | – | – | – | – | – | 1 | 0.796 | 0.713 | 0.68 | 0.187 | 1.42 | – | 1.12 | 0.528 | 1.25 |
| NCI-H1648 | 0.328 | 0.427 | 0.283 | 0.304 | 0.368 | 0.608 | 0.364 | 0.54 | 0.299 | 0.188 | – | – | – | – | – | – | – | – | – | – |
| NCI-H1703 | – | – | – | – | – | – | – | – | – | – | – | 0.582 | 0.637 | 0.5 | 0.14 | 1.46 | 0.929 | 0.884 | 0.286 | 0.921 |
| NCI-H650 | 0.406 | 0.399 | 0.451 | 0.403 | 0.367 | 0.749 | 0.829 | 0.654 | 0.668 | 0.583 | 0.866 | 0.699 | 0.78 | – | 0.421 | – | – | – | – | – |
| LCLC-103H | – | 0.822 | 0.72 | 0.796 | 0.775 | 0.44 | 0.503 | 0.502 | 0.511 | 0.365 | 1.09 | 0.989 | 0.88 | 0.892 | 0.884 | – | – | – | – | – |
| NCI-H1563 | – | – | – | – | – | – | – | – | – | – | 0.918 | 0.802 | 0.788 | 0.758 | 0.638 | – | – | – | – | – |
| NCI-H1395 | 0.846 | 0.698 | – | 0.722 | 0.595 | – | 0.76 | 0.688 | 0.73 | 0.519 | – | – | – | – | – | 1.16 | 1.14 | 1.08 | 0.734 | 1.24 |
